In one series the test system is Escherichia coli ATCC 26. Nature of the series: Antibacterial spectrum, agar dilution method (pH 8.0). It is filed as cell-based. Particulars: ATCC26, read-out: Minimum inhibitory concentration. Background: In agar dilution, organisms are placed on agar that contains the substance at set levels.
Series [1] can be described thus: Solubility of the free base. Format: physicochemical.
Series [2] has as its system Bacillus subtilis No. 10707. Put plainly: Antibacterial spectrum, agar dilution method (pH 8.0). It is filed as cell-based. Particulars: read-out: Minimum inhibitory concentration.
Series [3] concerns Escherichia coli Juhl KY 4286. Nature of the series: In vivo test on mice infected intraperitoneally with Escherichia coli, subcutaneous treatment. More on the design: species or system mice infected with Escherichia coli Juhl KY 4286. Here is the method:
In this respect, in vivo tests have been conducted on mice infected intraperitoneally with Escherichia coli Juhl KY 4286. The thus infected mice were treated with various concentrations of Fortimicin A by subcutaneous […]. As a result the ED50 of Fortimicin A has been determined to be 6mg/kg. In view of the excellent antibacterial activity, the present substance, Fortimicin A, is considered to be useful in medical treatment as an antibacterial substance. Moreover, in view of the foregoing wide antibacterial spectrum, Fortimicin A may also be useful as a surface antibacterial agent.

Series [4] has as its system Proteus rettgeri Booth KY 4288. Put plainly: Antibacterial spectrum, agar dilution method (pH 8.0). Format: cell-based. Particulars: Providencia rettgeri, read-out: Minimum inhibitory concentration.
The test system of another series is Escherichia coli KY 8314. Described as above. Particulars: KY8314, resistant to Streptomycin, read-out: Minimum inhibitory concentration. It is filed as cell-based.
Series [5] deals with Staphylococcus aureus KY 8957. The series is described as above. Format: cell-based. The conditions noted are these: KY8957, resistant to Chloramphenicol, Streptomycin, Kanamycin B, Tetracycline and Paromomycin, read-out: Minimum inhibitory concentration.
The test system of series [6] is Staphylococcus aureus KY 8950. The series is described as above. Format: cell-based. Particulars: KY8950, resistant to Streptomycin, Tetracycline, Penicillin and sulfonamide, read-out: Minimum inhibitory concentration.
The subject of series [7] is Pseudomonas aeruginos KY 8510. Described as above. It is filed as cell-based. Particulars: KY8510, pH 8, read-out: Minimum inhibitory concentration.
Series [8] deals with Staphylococcus aureus KY 8956. The description is as above. Format: cell-based. The conditions noted are these: KY8956, resistant to Streptomycin, Paromomycin, Tetracycline, Erythromycin and Oleandomycin, read-out: Minimum inhibitory concentration.
Series [9] has as its system Gram-positive and Gram-negative bacteria. Put plainly: Antibacterial activity against Gram-positive and Gram-negative bacteria (in words). Format: cell-based.
For another series, the system named is Escherichia coli KY 8302. Nature of the series: Antibacterial spectrum, agar dilution method (pH 8.0). It is filed as cell-based. The conditions noted are these: KY8302, resistant to Chloramphenicol, Streptomycin, Kanamycin, Paromomycin, Tetracycline and Spectinomycin, read-out: Minimum inhibitory concentration.
For series [10], the system named is bacteria of the genus Proteus. Put plainly: Antibacterial activity against bacteria of the genus Proteus (in words). It is filed as cell-based.
The test system of a further series is Proteus vulgaris KY 4296. Nature of the series: Antibacterial spectrum, agar dilution method (pH 8.0). It is filed as cell-based. The conditions noted are these: KY4296, resistant to nalidixic acid, read-out: Minimum inhibitory concentration.
In the next series the test system is Staphylococcus aureus. Put plainly: Antibacterial activity against resistant Staphylococcus aureus (in words). It is filed as cell-based. Particulars: Staphylococcus aureus resistant to various known antibiotics.
Series [11] concerns Streptococcus faecalis ATCC 10541. Nature of the series: Antibacterial spectrum, agar dilution method (pH 8.0). Format: cell-based. The conditions noted are these: Enterococcus faecalis, ATCC10541, read-out: Minimum inhibitory concentration.
The subject of another series is Escherichia coli KY 8315. The description is as above. Format: cell-based. The conditions noted are these: KY8315, resistant to Streptomycin, Kanamycin, Paromomycin and Neomycin, read-out: Minimum inhibitory concentration.
Series [12] relates to Proteus vulgaris Abbott JJ, KY 4295. Described as above. Particulars: read-out: Minimum inhibitory concentration. Format: cell-based.
Series [13] deals with Staphylococcus aureus KY 8953. Described as above. It is filed as cell-based. Particulars: KY8953, resistant to Streptomycin, Kanamycin, Paromomycin, Tetracycline, Neomycin, Kanamycin B and Erythromycin, read-out: Minimum inhibitory concentration.
Series [14] concerns Proteus morganii Jenkins KY 4298. Described as above. It is filed as cell-based. Particulars: Morganella morganii, read-out: Minimum inhibitory concentration.
In a further series the test system is Escherichia coli KY 8310. The series is described as above. The conditions noted are these: KY8310, resistant to Chloramphenicol, Streptomycin, Kanamycin, Gentamicin, Kanamycin B, Paromomycin, Tetracycline and Spectinomycin, read-out: Minimum inhibitory concentration. Format: cell-based.
The test system of series [15] is Salmonella typhosa ATCC 9992. Described as above. It is filed as cell-based. The conditions noted are these: Salmonella enterica, pH 8, read-out: Minimum inhibitory concentration.
In series [16] the test system is Shigella sonnei ATCC 9290. Described as above. Format: cell-based. The conditions noted are these: ATCC9290, read-out: Minimum inhibitory concentration.
The subject of a further series is Escherichia coli KY 8331. The description is as above. Format: cell-based. The conditions noted are these: KY8331, resistant to Kanamycin, Ribostamycin, Neomycin, Paromomycin and Lividomycin, read-out: Minimum inhibitory concentration.
Series [17] deals with Staphylococcus aureus KY 8942. The series is described as above. Format: cell-based. The conditions noted are these: KY8942, resistant to Kanamycin, Paramomycin, Streptomycin, Gentamicin and Nebramycin, read-out: Minimum inhibitory concentration.
Series [18] deals with Bacillus cereus var. mycoides ATCC 9463. Put plainly: microbe, parasite or virus in culture. Format: cell-based. The conditions noted are these: ATCC9463, pH 8, read-out: Minimum inhibitory concentration.
Series [19] deals with Klebsiella pneumoniae ATCC 10031. Put plainly: Antibacterial spectrum, agar dilution method (pH 8.0). The conditions noted are these: ATCC10031, read-out: Minimum inhibitory concentration. It is filed as cell-based.
For series [20], the system named is Proteus mirabilis No. 39 KY 4290. The series is described as above. It is filed as cell-based. The conditions noted are these: NO.39KY4290, read-out: Minimum inhibitory concentration.
Series [21] has as its system Proteus mirabilis Finland 9 KY 4293. The series is described as above. It is filed as cell-based. The conditions noted are these: FINLAND9KY4293, read-out: Minimum inhibitory concentration.
Series [22] relates to Proteus rettgeri Hambrook KY 4289. Described as above. Format: cell-based. The conditions noted are these: Providencia rettgeri, read-out: Minimum inhibitory concentration.
In another series the test system is Escherichia coli KY 8327. Described as above. It is filed as cell-based. The conditions noted are these: KY8327, pH 8, read-out: Minimum inhibitory concentration.
The next series relates to Escherichia coli KY 8332. The description is as above. It is filed as cell-based. The conditions noted are these: KY8332, resistant to Kanamycin and Tobramycin, read-out: Minimum inhibitory concentration.
Series [23] concerns Proteus mirabilis No. 825 KY 4292. The description is as above. It is filed as cell-based. The conditions noted are these: NO.825KY4292, read-out: Minimum inhibitory concentration.
The subject of series [24] is Pseudomonas aeruginosa BMH No. 1. The description is as above. The conditions noted are these: BMHNO.1, read-out: Minimum inhibitory concentration. It is filed as cell-based.
A further series deals with Escherichia coli. Put plainly: Antibacterial activity against resistant Escherichia coli (in words). The conditions noted are these: Escherichia coli resistant to various known antibiotics. It is filed as cell-based.
The test system of series [25] is Staphylococcus aureus ATCC 6538P. Nature of the series: Antibacterial spectrum, agar dilution method (pH 8.0). Format: cell-based. The conditions noted are these: ATCC6538P, read-out: Minimum inhibitory concentration.
In series [26] the test system is Bacillus cereus ATCC 9634. The description is as above. The conditions noted are these: ATCC9634, read-out: Minimum inhibitory concentration. Format: cell-based.
For series [27], the system named is Proteus vulgaris ATCC 6897. The description is as above. Particulars: ATCC6897, read-out: Minimum inhibitory concentration. Format: cell-based.

The structures appear in SMILES notation. Converted amounts (≈) assume the structure as drawn. “Also recorded” adds a separate entry of the source.

One may read the ED50 as the dose that gives a 50% effect, or the effect in half of the subjects.

With `COC1C(O)C(N)C(OC2OC(C(C)N)CCC2N)C(O)C1N(C)C(=O)CN` (centres unmarked) [Fortimicin A], the MIC with Escherichia coli ATCC 26 is 0.16 µg/mL (≈ 0.395 µM); in series [2] it was 0.02 µg/mL (≈ 0.0493 µM); in [4], 0.8 µg/mL (≈ 1.97 µM); with Escherichia coli KY 8314, 0.26 µg/mL (≈ 0.641 µM); in series [5] it was 0.32 µg/mL (≈ 0.789 µM); in series [6], 1.3 µg/mL (≈ 3.21 µM). In addition, the MIC was determined as 5 µg/mL (≈ 12.3 µM) in [7]; 0.32 µg/mL (≈ 0.789 µM) in series [8]; 0.26 µg/mL (≈ 0.641 µM) with Escherichia coli KY 8302; 0.41 µg/mL (≈ 1.01 µM) in the series on Proteus vulgaris KY 4296; 10 µg/mL (≈ 24.7 µM) in series [11]; 0.13 µg/mL (≈ 0.321 µM) in the series on Escherichia coli KY 8315. For the same compound, the MIC in [12] came to 0.8 µg/mL (≈ 1.97 µM); in series [13], 1.3 µg/mL (≈ 3.21 µM); in series [14] it was 1.6 µg/mL (≈ 3.95 µM); in the series on Escherichia coli KY 8310, 0.13 µg/mL (≈ 0.321 µM); in series [15], 0.08 µg/mL (≈ 0.197 µM); in [16], 0.3 µg/mL (≈ 0.74 µM). Also, the MIC is 0.3 µg/mL (≈ 0.74 µM) in the series with Escherichia coli KY 8331; 10 µg/mL (≈ 24.7 µM) in series [17]; 0.6 µg/mL (≈ 1.48 µM) in series [18]; 0.08 µg/mL (≈ 0.197 µM) in series [19]; 0.8 µg/mL (≈ 1.97 µM) in series [20]; 0.8 µg/mL (≈ 1.97 µM) in series [21]. The MIC worked out at 0.41 µg/mL (≈ 1.01 µM) in [22]; 0.13 µg/mL (≈ 0.321 µM) with Escherichia coli KY 8327; 0.3 µg/mL (≈ 0.74 µM) in the series on Escherichia coli KY 8332; 0.41 µg/mL (≈ 1.01 µM) in series [23]; 5 µg/mL (≈ 12.3 µM) in series [24]; 0.04 µg/mL (≈ 0.0986 µM) in series [25]. Moreover, the MIC came out at 0.6 µg/mL (≈ 1.48 µM) in [26] and 0.16 µg/mL (≈ 0.395 µM) in series [27]. In addition, the “Solubility in organic solvents” value in [1] (chloroform, benzene, ethyl acetate, butyl acetate, ethyl ether, butanol, petroleum ether, n-hexane, etc., free base) is “insoluble”. In series [1] (ethanol and acetone, free base), the “Solubility in ethanol and acetone” value is “slightly soluble”. Further, the Solubility in methanol entry in series [1] (methanol, free base) is given as “soluble”. Further, the “Solubility in the ordinary organic solvents” value in series [1] (ordinary organic solvents) is listed as “poorly soluble”. Moreover, the Solubility in water entry in series [1] (water, free base) was “soluble; also recorded: very soluble”. Besides, the 50% effect level in [3] (Escherichia coli, JUHLKY4286, sc) (ED50) was put at a dose of 6 mg/kg. Moreover, the Therapeutic effects entry in [3] (therapy of infectious diseases caused by the tested bacteria) was “remarkable therapeutic effects”. In addition, the Antibacterial activity entry in series [9] was “active upon Gram-positive and Gram-negative bacteria; also recorded: wide range of activity”; in series [10], “satisfactory antibacterial activity”; with Staphylococcus aureus it was “strong antibacterial activity”; with Escherichia coli, “strong antibacterial activity”.

`CNC1C(O)C(OC2OC(C(C)N)CCC2N)C(N)C(O)C1OC` (centres unmarked) [Fortimicin B]: the Antibacterial activity result in series [9] is “activity against Gram-positive and Gram-negative bacteria”.

The values are drawn from patent US3976768A, “Fortimicin A” (Abbott Laboratories, priority 1973, dated 1976).
